Laboratory results from PMC11288129, “Diversely evolved xibalbin variants from remipede venom inhibit potassium channels and activate PKA-II and Erk1/2 signaling” (BMC Biology, 2024).
Positions of bridges follow the written chain, without caps; N, C: chain ends. No end group written: not given here.

Assays:
rNav1.4 = experiment: TEVC current-voltage relationship (Vhalf), Nav1.4; type: cell-based, rat; design: Vhalf, toxin inactivation, Nav1.4 / Vhalf, toxin activation, Nav1.4: unit not given here; details: for Vhalf, toxin activation, Nav1.4 / Vhalf, toxin inactivation, Nav1.4: 1 µM
From the text: For the expression of Kv channels rat Kv1.1 (GenBank accession number: NM_173095 [88, 89]), rKv1.2 (NM_012970 [90, 91]), human Kv1.3 (NM_002232 [92, 93]), rKv1.4 (NM_012971 [94, 95]), rKv1.6 (NM_023954 [96, 97]), hKv2.1 (NM_004975 [98, 99]), hKv3.1 (NM_004976 [100, 101]), rKv4.2 (NM_031739 [102, 103]), hKv10.1 (NM_172362 [104, 105]), hERG1 [Kv11.1, (NM_000238 [106, 107])], and Shaker IR [from Drosophila melanogaster, (NM_167595 [108, 109])], Nav channels [rNav1.2 (NM_012647 [42, 110]), rNav1.4 (NM_013178 [111, 112]), hNav1.5 (NM_198056 [113, 114]), mNav1.6 (NM_001077499 [115, 116]), BgNav [from Blattella germanica, (DQ466887 [117, 118])] and the auxiliary subunits rβ1 (NM_001271045 [119, 120]), hβ1 (NM_001037 [121, 122]), and TipE [from D. melanogaster, (NM_079196 [109, 123])], and Cav channels hCav3.1 [124, 125], hCav3.2 [126, 127], and hCav3.3 [128, 129] in Xenopus oocytes, the linearized plasmids were transcribed using the T7 or SP6 mMESSAGEmMACHINE transcription kit (Ambion, Austin, TX, USA). Mature female animals were purchased from Nasco (Fort Atkinson, USA) and were housed in the Aquatic Facility (KU Leuven) in compliance with the regulations of the European Union (EU) concerning the welfare of laboratory animals as declared in Directive 2010/63/EU. The use of X. laevis oocytes was approved by the Animal Ethics Committee of the KU Leuven with the license number P186/2019. Stage V–VI oocytes were collected from anesthetized female X. laevis frog as previously described, with the frogs anesthetized by placement in 0.1% tricaine solution (amino benzoic acid ethyl ester; Merck, USA). Oocyte microinjection was performed using a microinjector (Drummond Scientifc®, USA), with a programmed cRNA injection volume of 4—50 nL, depending on the channel subtype. The oocytes were incubated in ND96 solution (96 mM NaCl, 2 mM KCl, 1.8 mM CaCl2, 2 mM MgCl2, and 5 mM HEPES, pH 7.4), supplemented with 50 mg/l gentamicin sulfate.
Electrophysiological measurements were performed at room temperature (18–22 °C) using the two-electrode voltage clamp (TEVC) technique. Data were obtained using a GeneClamp 500 amplifier (Axon Instruments, USA), and Clampex9 software (Axon Instruments), responsible for data acquisition and storage. Glass micropipettes were produced using glass capillaries (borosilicate WPI 1B120-6) and drawn in a WPI (World Precision Instruments, USA) manual stretcher. The bath and perfusion solutions were either the previously described ND96 (Nav and Kv channels) or calcium-free ND96 supplemented with 10 mM BaCl2 (Cav channels).
Whole-cell currents of oocytes were recorded 1 to 3 days after injection. Current and voltage electrodes were filled with 3 M KCl and their resistance was adjusted from 0.7 to 2.0 MΩ. Currents were sampled at 20 kHz (Nav channels) and 10 kHz (Kv and Cav channels) and filtered using a four-pole Bessel low-pass Bessel filter, at 1 kHz for sodium, and […] for potassium and calcium, except for the hERG ion channel, in which the currents were filtered at 1 kHz. Leak subtraction was performed using a -P/4 protocol. Kv1.x currents were evoked by 500 ms depolarizations to 0 mV followed by a 500-ms pulse to − 50 mV, from a holding potential of − 90 mV. Kv2.1, Kv3.1, and Kv4.2 currents were elicited by 500 ms pulses to + 20 mV from a holding potential of − 90 mV. Current traces of Kv10.1 were elicited by 2 s depolarization to 0 mV, from a holding potential of − 90 mV. Current traces of hERG1 channel were elicited by applying a + 40 mV prepulse for 2 s followed by a step of − 120 mV for 2 s. Sodium current traces were evoked by a 100 ms depolarization to 0 mV, from a holding potential of − 90 mV. The current–voltage (IV) relationships were determined by 100-ms step depolarizations between − 90 and + 40 mV, using 5 mV increments. […]

rNav1.2 = experiment: TEVC inhibition, Nav1.2; type: cell-based, rat; details: 1 µM, Xenopus oocytes, ND96, 18–22 °C, mean ± SEM, n ≥ 3
From the text: For the expression of Kv channels rat Kv1.1 (GenBank accession number: NM_173095 [88, 89]), rKv1.2 (NM_012970 [90, 91]), human Kv1.3 (NM_002232 [92, 93]), rKv1.4 (NM_012971 [94, 95]), rKv1.6 (NM_023954 [96, 97]), hKv2.1 (NM_004975 [98, 99]), hKv3.1 (NM_004976 [100, 101]), rKv4.2 (NM_031739 [102, 103]), hKv10.1 (NM_172362 [104, 105]), hERG1 [Kv11.1, (NM_000238 [106, 107])], and Shaker IR [from Drosophila melanogaster, (NM_167595 [108, 109])], Nav channels [rNav1.2 (NM_012647 [42, 110]), rNav1.4 (NM_013178 [111, 112]), hNav1.5 (NM_198056 [113, 114]), mNav1.6 (NM_001077499 [115, 116]), BgNav [from Blattella germanica, (DQ466887 [117, 118])] and the auxiliary subunits rβ1 (NM_001271045 [119, 120]), hβ1 (NM_001037 [121, 122]), and TipE [from D. melanogaster, (NM_079196 [109, 123])], and Cav channels hCav3.1 [124, 125], hCav3.2 [126, 127], and hCav3.3 [128, 129] in Xenopus oocytes, the linearized plasmids were transcribed using the T7 or SP6 mMESSAGEmMACHINE transcription kit (Ambion, Austin, TX, USA). […]
Whole-cell currents of oocytes were recorded 1 to 3 days after injection. […] The current–voltage (IV) relationships were determined by 100-ms step depolarizations between − 90 and + 40 mV, using 5 mV increments. […]

Sequence | Vhalf, toxin activation, Nav1.4 (rNav1.4; replicate 1) | Vhalf, toxin inactivation, Nav1.4 (rNav1.4; replicate 1) | Vhalf, toxin activation, Nav1.4 (rNav1.4; replicate 2) | Vhalf, toxin inactivation, Nav1.4 (rNav1.4; replicate 2) | Vhalf, toxin activation, Nav1.4 (rNav1.4; replicate 3) | Vhalf, toxin inactivation, Nav1.4 (rNav1.4; replicate 3) | Vhalf activation shift, Nav1.4 (rNav1.4; 1 µM versus control (ND96)) [mV] | inhibition of Nav1.2 (rNav1.2) [%]
RLFCIRHHKYCGHRPKRCCSGLFCRCNTFGTNCRCQSKGALGKLI (disulfide 4-19, 11-24, 18-35, 26-33) [xib1] | -19.1826 | -47.3987 | -12.5775 | -44.7262 | -17.1419 | -46.0496 | – | –
KRSCIRRFGRCDHRPNDCCYNSSCRCNLWGSNCRCQRMGLFQKWGK (disulfide 4-19, 11-24, 18-35, 26-33) [xib13] | -16.1478 | -45.0612 | -15.8394 | -52.747 | -14.4257 | -47.6866 | 3.4 | 15.6 ± 2.6
